From PubChem BioAssay AID2359 (Sanford-Burnham Center for Chemical Genomics, 2010)

Target: Kappa-type opioid receptor (Homo sapiens) (UniProt P41145)
Assay: KOR agonist analogs, imaging readout, SAR follow-up, image-based (AID 2359)
Settings: KOR agonist image-based assay (receptor translocation imaging)

Sequence of Kappa-type opioid receptor (Homo sapiens) (P41145 whole entry, looked up): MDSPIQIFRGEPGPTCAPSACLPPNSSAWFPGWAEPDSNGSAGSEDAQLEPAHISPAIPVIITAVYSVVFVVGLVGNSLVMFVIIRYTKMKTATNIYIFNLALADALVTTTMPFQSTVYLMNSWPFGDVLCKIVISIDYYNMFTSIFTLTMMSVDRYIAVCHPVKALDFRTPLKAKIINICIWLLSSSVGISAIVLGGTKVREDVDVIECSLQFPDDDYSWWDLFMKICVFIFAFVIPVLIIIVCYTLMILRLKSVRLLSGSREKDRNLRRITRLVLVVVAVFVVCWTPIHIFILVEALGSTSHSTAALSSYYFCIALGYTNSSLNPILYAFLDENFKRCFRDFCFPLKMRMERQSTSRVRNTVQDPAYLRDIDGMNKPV

EC50 [µM] | Structure (SMILES)
10.1 | COc1ccc(CN(Cc2ccccn2)C(=O)CN2C(=O)COc3ccccc32)cc1
4.93 | CCCCN(Cc1cc2cc(C)ccc2[nH]c1=O)C(=O)c1ccccn1
